{"source": "patent US20170370908A1", "about": "“BRAIN IN VITRO MODELS, DEVICES, SYSTEMS, AND METHODS OF USE THEREOF” (President and Fellows of Harvard College, priority 2014, published 2017)", "system": "pericytes", "test": "Muscular thin film (MTF) assay of pericyte contraction response to vasoactive agents", "type": "cell-based", "conditions": "pericytes on muscular thin films treated with vasoactive agent", "excerpt": "FIG. 6 illustrates an assay used to measure stress applied by pericytes treated with the vasoactive agent, endothelin.\nFIG. 7 illustrates stress measurement applied by pericytes treated with vasoactive agent endothelin."}
{"smiles": "CC[C@H](C)[C@H](NC(=O)[C@H](CC(=O)O)NC(=O)[C@H](CC(C)C)NC(=O)[C@H](Cc1c[nH]cn1)NC(=O)[C@@H]1CSSC[C@H](N)C(=O)N[C@@H](CO)C(=O)N[C@H]2CSSC[C@H](NC(=O)[C@H](CCC(=O)O)NC(=O)[C@H](CCCCN)NC(=O)[C@H](CC(=O)O)NC(=O)[C@H](CCSC)NC(=O)[C@H](CC(C)C)NC(=O)[C@H](CO)NC(=O)[C@H](CO)NC2=O)C(=O)N[C@@H](C(C)C)C(=O)N[C@@H](Cc2ccc(O)cc2)C(=O)N[C@@H](Cc2ccccc2)C(=O)N1)C(=O)N[C@H](C(=O)N[C@@H](Cc1c[nH]c2ccccc12)C(=O)O)[C@@H](C)CC", "note": "[endothelin]", "values": [{"measurement": "contraction response of pericytes (stress applied by pericytes)", "value": "induces pericyte contraction"}]}
